Measured values reported in ChEMBL document CHEMBL1155628, “A new cembranolide from the soft coral Sinularia capillosa” (2000).
Values after ≈ are worked out from the molar mass of the structure shown.

Assays:
L1210 = experiment: Cytotoxicity against mouse L1210 cells; assay type: functional; conditions: read-out: ED50 (the source's name)
P388 = experiment: Cytotoxicity against mouse P388 cells; assay type: functional; conditions: read-out: ED50 (the source's name)

Structure (SMILES)	EC50 (L1210) [µg/mL]	EC50 (P388) [µg/mL]
C=C1C(=O)O[C@]2(C)CC[C@@H]1C[C@@H]1O[C@@]1(C)CC[C@H](OC(C)=O)[C@@]1(C)CC[C@@H]2O1	5 (≈ 12.7 µM)	2.5 (≈ 6.37 µM)
C=C1C(=O)O[C@]2(C)CC[C@@H]1C[C@@H](O)[C@@](C)(O)CC/C=C(\C)CC[C@@H]2O [CAPILLOLIDE]	18.5 (≈ 52.5 µM)	15 (≈ 42.6 µM)
C=C1C(=O)O[C@@H]2C[C@H]1CC[C@]1(C)O[C@H]1CC/C(C)=C/CC[C@@]2(C)O [FLEXIBILIDE]	3 (≈ 8.97 µM)	1.5 (≈ 4.48 µM)
C=C1C(=O)O[C@]2(C)CC[C@@H]1C[C@@H]1O[C@@]1(C)CC/C=C(\C)CC[C@@H]2O [SINULARIOLIDE]	10 (≈ 29.9 µM)	8.5 (≈ 25.4 µM)
